Reference: a melting point compilation (Tetko et al.)

Compound	melting point [°C]
CCOC(=O)C(F)(F)F	-78
COc1cc(C(=O)OCc2cccc(COC(=O)c3cc(OC)c(OC)c(OC)c3)n2)cc(OC)c1OC	119
Oc1ccc(Cl)c2c1CCC2	92
CCOC(=O)CCCCCCCCCCCCCCCCC(=O)OCC	54.5
O=CC=Cc1ccccc1[N+](=O)[O-]	125 to 129
C[C@]12CCC(=O)C[C@@H]1CCC1=C2CC[C@@H]2C(=O)CC[C@H]12	137 to 138
CC(=O)NC1C(O)OC(CO)C(O)C1OC(C)C(=O)O (stereo not drawn)	125
O=C(CC(=O)c1cc(Cl)ccc1O)c1ccccc1	107 to 112
Cc1nc(CC(=O)O)c(C)s1	110 to 113
COC(=O)c1cncc(Br)c1	98 to 100
O=C(CC(=O)C(F)(F)F)c1ccc2c(c1)OCO2	108 to 109
COc1ccccc1NC(=O)c1cnc(C(C)(C)C)cn1	78
CN(C)c1ccc(C=C2C(=O)NC(=O)NC2=O)cc1	245
Cc1c(Cl)cccc1Cl	25.8
O=C1c2ccccc2C(=O)c2c1cc1ccccc1c2O	320 to 322
CC(=O)Nc1ccccc1CCN(CCc1ccccc1NC(C)=O)N=O	172
Nc1ccc(S(=O)c2ccc(N)cc2)cc1	175
c1ccc(-c2ccc3ncccc3c2)cc1	110
O=C(CCc1ccccc1)NNc1ccccc1	117
CC(=O)/C=C/c1oc2ccc(Cl)cc2c1-c1ccc(C)o1	118 to 119
COC(=O)CC[C@@H](C)[C@H]1CC[C@H]2[C@@H]3C(=O)C[C@@H]4CCCC[C@]4(C)[C@H]3CC[C@]12C	92.9
CCOC(=O)c1[nH]c(C)c(CO)c1C	220 to 222
CC(=O)Nc1ccccc1CCc1ccccc1NC(C)=O	250
Cn1cc(Br)c(CO)n1	94 to 95
CC1CC(=O)OC(=O)C1	40 to 45
O=C(O)C(c1ccccc1)(c1ccccc1)c1ccccc1	268 to 269

Compound	melting point [°C]
COC(=O)C(F)(F)C(F)(F)C(F)(F)F	-86
O=C1c2ccccc2C(=O)N1CCCO	78
Cn1c(C(C#N)c2ncccc2[N+](=O)[O-])nc2ccccc21 (stereo not drawn)	214
O=C(CI)NCCNc1cccc2c(S(=O)(=O)O)cccc12	300
COC1=C/C(=N\O)C2(C)CCC1C2(C)C (stereo not drawn)	185
CCC1CC(NC(=O)CNC(=O)CBr)C(C)(C)N1O (stereo not drawn)	145 to 147
CC(C)CCOc1ccc(NC(=S)Nc2ccc(OCCC(C)C)cc2)cc1	146
CC(Cl)OC(=O)Cl (stereo not drawn)	-65
NS(=O)(=O)c1cc(Cl)cc(Cl)c1	170 to 172
BrCCOc1cccc2c1OCCO2	85 to 86
COc1ccc(C2(C(=O)O)CC2)cc1	127 to 132
Cc1cncc(Oc2cccc(N)c2)n1	59.5 to 61
COc1ccccc1NC(N)=S	156
Clc1cccc2c(C#Cc3ccccc3)c3cccc(Cl)c3c(C#Cc3ccccc3)c12	167 to 170
C/C=C/C(=O)N1C(=O)OC[C@@H]1Cc1ccccc1	84 to 85
O=C(Cl)c1csc(-c2cccs2)n1	93 to 94
NNc1ccccn1	46.6
[N-]=[N+]=Nc1ccccc1-c1ccccc1	49
CCOC(=O)C(O)(c1ccc(N)c(OC)c1)C(F)(F)F (stereo not drawn)	97 to 99
Cc1nc(-c2ccc(C(F)(F)F)cc2)sc1S(=O)(=O)Cl	93 to 94
CCCCCCCc1ccc(-c2ccccc2)cc1	27
CCCCCSc1ncccc1C(=O)O	118 to 120
CCOC(=O)c1sc2sc(C#N)c(N)c2c1N	260
O=C1Cc2cc(S(=O)(=O)Cl)ccc2N1	160
Cc1nn(-c2ccccc2)nc1C(=O)N1CCCC1	89 to 90
Cc1ccc(C)c(N/N=C(/C#N)c2nc3ccccc3c(=O)[nH]2)c1	205

Compound	melting point [°C]
O=S(=O)(Cl)Cc1cccc(F)c1	39 to 41
COc1cc(C2Nn3c(nnc3-c3cccnc3)S2)ccc1O (stereo not drawn)	216
O=C(O)CC(F)(F)F	9.7
O=C1CCC(c2ccccc2)O1 (stereo not drawn)	36.5
CCOC(=O)c1cc(C)n(C)n1	87
O=Cc1cn2ccsc2n1	71
C=C[Si](C)(C)O[Si](C)(C)C=C	-99.7
C=Cc1ccco1	-94
O=S(=O)(Cl)c1c(Cl)cc(C(F)(F)F)cc1Cl	48
CC(O)c1cccc(N)c1 (stereo not drawn)	68
FC(F)(F)c1cc2ccccc2cn1	31
Fc1ccccc1F	-34
CCCCCc1ccc(C(=O)O)cc1	85 to 90
Nc1ccc(Sc2ccc(N)cc2)cc1	108
O=[N+]([O-])c1cccnc1N1CCN(CCO)CC1	82 to 83
CCOc1c(Br)cc(Br)cc1C=O	87 to 87.5
CC/C(=N\NC(N)=O)C1CC2(C)CCC1C2(C)C (stereo not drawn)	222
CC(COc1ccc(Oc2ccccc2)cc1)Oc1ccccn1 (stereo not drawn)	49
CC1(O)CC(c2ccccc2)C([N+](=O)[O-])C(c2ccccc2N)O1 (stereo not drawn)	148
c1ccc(C2CC2)cc1	-31
CC(=O)/N=c1\sc(C(C)=O)nn1-c1ccccc1[N+](=O)[O-]	184
COc1ccc(Cc2c(N)nn3c(C)cc(C)nc23)cc1	159 to 160
O=C(CC(=O)C(F)F)c1ccccc1	37 to 45
CCC1OC(=O)C(C)C(OC2CC(C)(OC)C(O)C(C)O2)C(C)C(OC2OC(C)CC(N(C)C)C2O)C(C)(O)CC(C)C(=O)C(C)C(O)C1(C)O (stereo not drawn)	135
CC(=O)N1CC(C)=CC1=O	89 to 90
CC(=O)CCc1c[nH]c2ccccc12	94 to 96

Compound	melting point [°C]
O=C(Cl)c1cc(Cl)nc2ccc(Br)cc12	140 to 142
CCOC(=O)c1ccccc1C(=C1C=C(Br)C(=O)C(Br)=C1)c1cc(Br)c(O)c(Br)c1	208 to 211
CC1(C)C(=O)N(Br)C(=O)N1Br	187 to 191
C=C(C)C(=O)Nc1ccc(Cl)c(Cl)c1	128
O=C(O)c1ccc(Cc2ccc(C(=O)O)cc2)cc1	346 to 350
CCOC(=O)C1CCN(c2cc(C#N)ccn2)CC1	51 to 53
CCOC(=O)c1c(C=O)c(C)n(-c2ccccc2)c1C	78 to 81
Cc1cccc(OCC(O)CNC(C)(C)C)c1C (stereo not drawn)	57
O=C(C=NO)Nc1ccc(Cl)cc1Cl	198 to 201
O=C(CC1(O)Cc2ccccc21)c1ccccc1 (stereo not drawn)	83 to 83.5
Brc1ccc2c(c1)Oc1ccccc1O2	90
Cc1cc(F)ccc1[N+](=O)[O-]	20
C=C(C)C(=O)Oc1ccc(C(C)(C)c2ccc(OC(=O)C(=C)C)cc2)cc1	70 to 76
O=C(Cl)c1cnc2ccccc2n1	100
O=C(C1=NOC2C(=O)N(c3ccc(Cl)cc3)C(=O)C12)c1ccco1 (stereo not drawn)	171
CCOC(=O)c1cc(-c2ccco2)on1	49 to 50
FC(F)(F)C(F)(F)C(F)(F)I	-95
O=CC12CC=CCC1C1CC=CCC1O2 (stereo not drawn)	-80
COc1ccc2c(c1)CC(c1ccc([N+](=O)[O-])cc1)OC2=O (stereo not drawn)	176
CC(=O)CCc1oc2ccc([N+](=O)[O-])cc2c1-c1ccc(C)o1	124
OCc1ccc(-c2ccccn2)s1	86 to 88
CSc1ccccc1C(=O)O	170 to 173
CCOC(=O)C1=C(C)NC(=S)NC1c1ccco1 (stereo not drawn)	174 to 175
CCCCn1c2ccccc2c2ccccc21	58
CC(=O)OC1C(O)C2=C(C(=O)C(OC(C)=O)C3(CC3C)C2=O)C2(C)CCC(OC(C)=O)C(C)(C)C12 (stereo not drawn)	116 to 117
Cc1ccc(NC=CC(=O)c2ccc3c(c2)CCCC3)cc1	139

Compound	melting point [°C]
CC1=C(C(=O)OC(C)C)C(c2ccc3c(c2)OCO3)NC(=O)N1 (stereo not drawn)	186
Cc1cc(N)on1	83
CC(=O)Nc1nccs1	204 to 208
c1ccc2c(c1)CNC2	17
CN(C)CCOCCN(C)C	-80
O=C(O)c1ccc2c(c1)OCCCO2	143 to 146
O=Cc1cccc2c(Br)ccc([N+](=O)[O-])c12	135
Cc1ccc2cc(C(=O)O)ccc2n1	250
CC1CC(=O)CC2CCC3C4CCC(O)C4(C)CCC3C12C (stereo not drawn)	204
CC1(C)CCCCC1=O	-20.5
Cc1oc(-c2ccccc2)nc1CO	117 to 118
CC12CCC3C(CCC4CC(OCc5ccccc5)CCC43C)C1CCC2O (stereo not drawn)	225
N#Cc1ncccc1Cl	84
O=C(O)CCC(=O)Nc1ccccc1	148
Cn1c(CN)nc2ccccc21	261 to 263
ON=C(c1ccccc1)c1ccc(Cl)cc1	133
O=C(Nc1cccnc1Cl)c1ccc(F)cc1	140 to 142
CC(=O)N(Nc1ccccc1)c1ccc(-c2ccc(N(Nc3ccccc3)C(C)=O)cc2)cc1	235
O=C(Nc1ccc(Cl)cc1)c1cc(Cl)cc(Cl)c1O	142
Cc1ccc(-c2ccccc2)s1	47.5
CCOC(=O)c1cccnc1-c1ncccc1C(=O)OCC	90
O=[N+]([O-])c1cccc2scc(Br)c12	120 to 122
COP(=S)(OC)Oc1ccc([N+](=O)[O-])c(Cl)c1	21
N#Cc1c(C(F)(F)F)cc(Nc2cccc([N+](=O)[O-])c2)nc1Cl	276 to 279
